# Read-outs that look alike come from different tables or passages of the source. Where no end group is shown, it is not given here.
# Tests used:
# [1] = molecular target: T1, mouse B2 bradykinin receptor (Mus musculus, UniProt P32299); assay: Effect of guanine nucleotides on binding of BK to membranes (mouse B2 receptor, COS-7); details: increasing concentrations of guanine nucleotide
# T1 construct: The PCR product begins 99 bp upstream of the initiator methionine codon and ends 49 bp downstream of the stop codon; expressed in transfected cells; host or cells: COS-7 (transient), pcDNAI-Neo
# T1 sequence (P32299 1-366 isoform P32299-2): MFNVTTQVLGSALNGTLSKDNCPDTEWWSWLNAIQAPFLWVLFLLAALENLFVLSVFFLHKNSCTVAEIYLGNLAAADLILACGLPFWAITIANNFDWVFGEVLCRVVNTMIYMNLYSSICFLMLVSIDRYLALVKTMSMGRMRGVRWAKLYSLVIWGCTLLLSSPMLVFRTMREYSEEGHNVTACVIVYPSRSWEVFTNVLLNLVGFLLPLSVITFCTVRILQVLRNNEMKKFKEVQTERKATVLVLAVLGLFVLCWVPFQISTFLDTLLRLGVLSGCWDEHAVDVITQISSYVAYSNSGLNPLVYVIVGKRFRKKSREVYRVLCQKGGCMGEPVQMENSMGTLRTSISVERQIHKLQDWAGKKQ
# Text: The binding of BK to membranes was reduced by increasing concentrations of GTP, guanosine 5'-O-(3-thiotriphosphate) or 5'guanylylimidodiphosphate.
# [2] = molecular target: T1, mouse B2 bradykinin receptor; assay: Saturation binding to whole COS cells transiently expressing the mouse B2 receptor; details: single high affinity site, read-out: KD for [3H]BK
# Protocol: Binding assays were then performed to determine receptor antagonist or agonist interaction. The assays utilized in the instant invention follow the method of Manning et al., J. Pharmacol. Exp. Ther., 237, 504-512 (1986). […] The assay was terminated by filtration over Whatman GF/B filters presoaked for 3 hours in 0.1 % polyethyleneimine using a BRANDEL M-24 CELL […] (BRANDEL, Gaithersburg, Md.). The tubes were rinsed two times with 4 ml ice-cold […] and the filter bound radioactivity was quantitated by liquid scintillation counting. Nonspecific binding was determined by performing incubation in the presence of 1 uM BK and generally represents less than 5% of the total binding at 100pM ^3 H]BK. Competition binding experiments, in the presence of 100pM[^3 H]BK, were performed with varying concentrations of the test compound(s). The competition and saturation experiments were analyzed using the EBDA program of McPherson. See McPherson, G.A. J Pharmacol. Methods 14, 213-218 (1985).
# To verify the pharmacological properties of the mouse bradykinin B2 receptor the coding sequence of the mouse B2 bradykinin receptor was isolated by PCR (Perkin Elmer/Cetus) using a Techne thermocycler with the template being the EcoR I by Hind III genomic fragment in pSP72 and the 5' primer 5'-[…]-3' (SEQ.ID.NO.:8) and the 3' primer 5'- […]-3' (SEQ.ID.NO.:9). […]
# [3] = molecular target: T1, mouse B2 bradykinin receptor; assay: Competition binding using 100 pM [3H]BK at the expressed mouse B2 bradykinin receptor
# Protocol: Binding assays were then performed to determine receptor antagonist or agonist interaction. The assays utilized in the instant invention follow the method of Manning et al., J. Pharmacol. Exp. Ther., 237, 504-512 (1986). [^3 H]BK at various concentrations was incubated for 60 minutes at 25° C. with approximately 50ug membrane protein from COS-7 cells in a volume of 1 ml. The assay was terminated by filtration over Whatman GF/B filters presoaked for 3 hours in 0.1 % polyethyleneimine using a BRANDEL M-24 CELL […] (BRANDEL, Gaithersburg, Md.). The tubes were rinsed two times with 4 ml ice-cold […] and the filter bound radioactivity was quantitated by liquid scintillation counting. Nonspecific binding was determined by performing incubation in the presence of 1 uM BK and generally represents less than 5% of the total binding at 100pM ^3 H]BK. Competition binding experiments, in the presence of 100pM[^3 H]BK, were performed with varying concentrations of the test compound(s). The competition and saturation experiments were analyzed using the EBDA program of McPherson. See McPherson, G.A. J Pharmacol. Methods 14, 213-218 (1985).
# To verify the pharmacological properties of the mouse bradykinin B2 receptor the coding sequence of the mouse B2 bradykinin receptor was isolated by PCR (Perkin Elmer/Cetus) using a Techne thermocycler with the template being the EcoR I by Hind III genomic fragment in pSP72 and the 5' primer 5'-[…]-3' (SEQ.ID.NO.:8) and the 3' primer 5'- […]-3' (SEQ.ID.NO.:9). The PCR product was subcloned into the Hind III and Xba I sites of the eukaryotic expression vector pcDNAI-Neo (Invitrogen). The PCR product begins 99 bp upstream of the initiator methionine codon and ends 49 bp downstream of the stop codon. The DNA sequence analysis using Sequenase (US Biochemical) of the subcloned PCR product confirmed that the sequence was identical to that in the original genomic fragment.
# [4] = molecular target: T2, human B2 bradykinin receptor (Homo sapiens, UniProt P30411); assay: Competition binding against 100 pM [3H]BK at the cloned human B2 receptor (COS-7); details: for IC50: [3H]BK binding to human B2 receptor; for specificity of binding (rank order): COS-7 expressed human B2 receptor; for competition for BK binding: COS-7
# T2 construct: placing the entire B2 clone under the control of the CMV promoter; expressed in transfected cells
# T2 sequence (P30411 1-364 isoform P30411-2): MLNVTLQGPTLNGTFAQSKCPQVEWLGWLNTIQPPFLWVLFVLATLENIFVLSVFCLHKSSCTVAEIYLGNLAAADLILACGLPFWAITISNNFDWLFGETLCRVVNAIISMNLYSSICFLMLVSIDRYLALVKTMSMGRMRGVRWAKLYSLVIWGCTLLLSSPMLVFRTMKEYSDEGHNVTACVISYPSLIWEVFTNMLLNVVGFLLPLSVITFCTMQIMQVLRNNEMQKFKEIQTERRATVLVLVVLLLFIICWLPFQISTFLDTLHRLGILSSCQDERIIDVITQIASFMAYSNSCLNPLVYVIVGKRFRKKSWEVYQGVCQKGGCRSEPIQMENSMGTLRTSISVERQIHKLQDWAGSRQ
# Protocol: In order to enable expression of the cDNA that encodes for the B2 bradykinin receptor, COS-7 cells were transfected using LIPOFECTIN (BRL, Gaithersburg, Md.) with 50ug/10^7 cells of the B2 receptor cDNA subcloned into the eukaryotic expression vector pcDNA I-Neo (Invitrogen). Cells were then harvested after 72 hours and the membranes containing the expressed receptor protein were prepared by scraping the cells in phosphate buffered saline solution and centrifuging for ten minutes at 500× g. The cell pellet was then resuspended and homogenized with a Polytron in 20 mM N-tris(hydroxymethyl)methyl-2-aminoethane sulfonic acid (TES,pH 6.8 at room temperature) buffer containing 1 mM 1, 10 phenanthroline. The homogenate was then centrifuged for ten minutes at 500 × g. The final membrane pellet was resuspended in assay buffer (TES plus 0.1% protease free bovine serum albumin, 5 uM MK-422 (enalaprilat; Gross et al., 1981) and 140 ug/ml bacitracin using a motor-driven teflon-glass tissue homogenizer. Protein determination was performed by the method of Bradford using bovine IgG as the standard. See Bradford, M.A. Anal. Biochem. 72, 248-254 (1976).
# Binding assays were then performed to determine receptor antagonist or agonist interaction. The assays utilized in the instant invention follow the method of Manning et al., J. Pharmacol. Exp. Ther., 237, 504-512 (1986). […] (BRANDEL, Gaithersburg, Md.). The tubes were rinsed two times with 4 ml ice-cold […] and the filter bound radioactivity was quantitated by liquid scintillation counting. […] The competition and saturation experiments were analyzed using the EBDA program of McPherson. See McPherson, G.A. J Pharmacol. Methods 14, 213-218 (1985).
# [5] = test system: rat vas deferens; details: cited from earlier work; for pre- or postsynaptic BK like responses: rat vas deferens
# [6] = test system: murine AB2.1 ES cells, pBS-KO-1 transformants; assay: FIAU counter-selection of pBS-KO-1 ES cell transformants; assay type: cell-based, mouse; details: FIAU 0.2 μM
# Protocol: Targeted alteration of the bradykinin B2 gene in murine ES cells The gene replacement vector used in the B2 gene disruption experiments was the pBS-KO-1 vector. When this vector recombined with the wild-type B2 allele to generate the B2 knock-out (B2 KO), the entire coding sequence for the B2 receptor was deleted (FIG. 2). The mouse embryonic stem cell line AB2.1 was electroporated with Not I -linearized pBS-KO-1 in multiple experiments. All AB2.1 ES cells were cultured on SNL feeder cells as described (Robertson, in Teratocarcinomas and embryonic stem cells, IRL Press, pp. 71-112 (1987)). Electroporations were performed with 4×10^6 ES cells and 25 μg linearized pBS-KO-l in 0.8 ml electroporation buffer (Specialty Media, Inc.) at 300v, 250 μF using a Bio-Rad Gene Pulser. ES cell transformants were selected with the antibiotic geneticin (Gibco G418: 200 μg/ml active G418), and some transformants were counter-selected with FIAU (Bristol Myers Squibb; 0.2 μM) for enhancement of homologous recombinants. Murine leukemia inhibitory factor (LIF; ESGRO, Gibco BRL, Inc.) was used at 1000 U/ml. […] G418-and FIAU-resistant ES clones were isolated by picking and growing individual colonies, and their genomic DNAs were prepared from AB2.1 5 KO-I-transformants as described (Laird et al., Nucleic Acids Res. 19:4293 (1991).
# [7] = test system: B2 receptor; details: cited from earlier work
# [8] = test system: B1 receptor; details: cited from earlier work
# [9] = expressed mouse B2 receptor, 100 pM [3H]BK
compound,measurement,setting,value
"Nc1nc2c(ncn2[C@@H]2O[C@H](COP(=O)(O)OP(=O)(O)OP(=O)(O)O)[C@@H](O)[C@H]2O)c(=O)[nH]1 [GTP, guanosine triphosphate]",binding of BK to membranes,[1],reduced
"[^3 H]BK: radioligand [3H]BK used in binding assays (RPPGFSPFR; also: tritium label; UniProt P01042 381-389, looked up)",Kd,[2],0.2 ± 0.03 nM
N=C(N)NCCC[C@H](NC(=O)[C@@H](N)CCCCN)C(=O)N1CCC[C@H]1C(=O)N1CCC[C@H]1C(=O)NCC(=O)N[C@@H](Cc1ccccc1)C(=O)N[C@@H](CO)C(=O)N1CCC[C@H]1C(=O)N[C@@H](Cc1ccccc1)C(=O)O [[des-Arg^10]-kallidin],IC50,[3],25000 nM
same,affinity,[3]; [9],very low affinity
"D-Arg^0-[Hyp^2,3, Thi^5,8 D-Phe^7 ]BK",IC50,[4],27 nM
"Des-Arg^9,LeuBK: B1 antagonist",inhibition of BK binding,"[4]; 10 uM, human B2 receptor",11%
same,antagonism of BK responses,"[5]; high concentrations, vas deferens",failed to antagonize BK responses
same,pre- or postsynaptic BK like responses,[5],inactive
N=C(N)NCCC[C@H](NC(=O)[C@H](Cc1ccccc1)NC(=O)[C@@H]1CCCN1C(=O)[C@H](CO)NC(=O)[C@H](Cc1ccccc1)NC(=O)CNC(=O)[C@@H]1CCCN1C(=O)[C@@H]1CCCN1C(=O)[C@H](CCCNC(=N)N)NC(=O)[C@@H](N)CCCCN)C(=O)O [kallidin],specificity of binding (rank order),[4],BK>lys-BK>met-lys-BK
same,affinity,[3]; [9],high (subnanomolar) affinity
Nc1nc2c(ncn2[C@@H]2O[C@H](COP(=O)(O)OP(=O)(O)OP(O)(O)=S)[C@@H](O)[C@H]2O)c(=O)[nH]1 [guanosine 5'-O-(3-thiotriphosphate)],binding of BK to membranes,[1],reduced
CC[C@H](C)[C@@H]1NC(=O)[C@H](Cc2ccc(O)cc2)NC(=O)[C@@H](N)CSSC[C@@H](C(=O)N2CCC[C@H]2C(=O)N[C@@H](CC(C)C)C(=O)NCC(N)=O)NC(=O)[C@H](CC(N)=O)NC(=O)[C@H](CCC(N)=O)NC1=O [oxytocin],competition for BK binding,[4]; human B2 receptor,No competition for BK binding
"[Thi^5,8,D-Phe^7 ]BK",IC50,[4],180 nM
"O=c1[nH]c(=O)n([C@@H]2O[C@H](CO)[C@@H](O)[C@@H]2F)cc1I [FIAU, 1-(2-deoxy 2-fluoro-B-D-arabinofluranosyl)-5-iodouracil]",fewer background pBS-KO-1 transformants,[6],about eleven
"angiotensin II: peptide (DRVYIHPF; Angiotensin-2; UniProt P01019 25-32, looked up)",competition for BK binding,[4]; human B2 receptor,No competition for BK binding
endothelin: peptide,competition for BK binding,[4]; human B2 receptor,No competition for BK binding
neurotensin,competition for BK binding,[4]; human B2 receptor,No competition for BK binding
"angiotensin I: peptide (DRVYIHPFHL; Angiotensin-1; UniProt P01019 25-34, looked up)",competition for BK binding,[4]; human B2 receptor,No competition for BK binding
N=C(N)NCCC[C@H](N)C(=O)N1CCC[C@H]1C(=O)N1CCC[C@H]1C(=O)NCC(=O)N[C@@H](Cc1ccccc1)C(=O)N[C@@H](CO)C(=O)N1CCC[C@H]1C(=O)N[C@@H](Cc1ccccc1)C(=O)O [Des-Arg^9 BK],activity at B2 receptors,[7],inactive at B2 receptors
same,inhibition at 10 µM,"[4]; 10 uM, human B2 receptor",18%
same,pre- or postsynaptic BK like responses,[5],inactive
same,potency as B1 receptor agonist relative to BK,[8],higher potency than BK
same,affinity,[3]; [9],very low affinity
same,IC50,"[3]; expressed mouse B2 receptor, 100 pM [3H]BK, read-out: IC50",6000 nM
CSCC[C@H](N)C(=O)N[C@@H](CCCCN)C(=O)N[C@@H](CCCNC(=N)N)C(=O)N1CCC[C@H]1C(=O)N1CCC[C@H]1C(=O)NCC(=O)N[C@@H](Cc1ccccc1)C(=O)N[C@@H](CO)C(=O)N1CCC[C@H]1C(=O)N[C@@H](Cc1ccccc1)C(=O)N[C@@H](CCCNC(=N)N)C(=O)O [met-lys-BK],specificity of binding (rank order),[4],BK>lys-BK>met-lys-BK
Nc1nc2c(ncn2[C@@H]2O[C@H](COP(=O)(O)OP(=O)(O)NP(=O)(O)O)[C@@H](O)[C@H]2O)c(=O)[nH]1 [5'guanylylimidodiphosphate],binding of BK to membranes,[1],reduced

# Source: patent US5750826A, “Bradykinin B2 receptor modified transgenic non-human animals” (Merck & Co., Inc., priority 1996, dated 1998)
